Test [1] deals with T1, Insulin-degrading enzyme (Homo sapiens, UniProt P14735).
T1 sequence (P14735 whole entry): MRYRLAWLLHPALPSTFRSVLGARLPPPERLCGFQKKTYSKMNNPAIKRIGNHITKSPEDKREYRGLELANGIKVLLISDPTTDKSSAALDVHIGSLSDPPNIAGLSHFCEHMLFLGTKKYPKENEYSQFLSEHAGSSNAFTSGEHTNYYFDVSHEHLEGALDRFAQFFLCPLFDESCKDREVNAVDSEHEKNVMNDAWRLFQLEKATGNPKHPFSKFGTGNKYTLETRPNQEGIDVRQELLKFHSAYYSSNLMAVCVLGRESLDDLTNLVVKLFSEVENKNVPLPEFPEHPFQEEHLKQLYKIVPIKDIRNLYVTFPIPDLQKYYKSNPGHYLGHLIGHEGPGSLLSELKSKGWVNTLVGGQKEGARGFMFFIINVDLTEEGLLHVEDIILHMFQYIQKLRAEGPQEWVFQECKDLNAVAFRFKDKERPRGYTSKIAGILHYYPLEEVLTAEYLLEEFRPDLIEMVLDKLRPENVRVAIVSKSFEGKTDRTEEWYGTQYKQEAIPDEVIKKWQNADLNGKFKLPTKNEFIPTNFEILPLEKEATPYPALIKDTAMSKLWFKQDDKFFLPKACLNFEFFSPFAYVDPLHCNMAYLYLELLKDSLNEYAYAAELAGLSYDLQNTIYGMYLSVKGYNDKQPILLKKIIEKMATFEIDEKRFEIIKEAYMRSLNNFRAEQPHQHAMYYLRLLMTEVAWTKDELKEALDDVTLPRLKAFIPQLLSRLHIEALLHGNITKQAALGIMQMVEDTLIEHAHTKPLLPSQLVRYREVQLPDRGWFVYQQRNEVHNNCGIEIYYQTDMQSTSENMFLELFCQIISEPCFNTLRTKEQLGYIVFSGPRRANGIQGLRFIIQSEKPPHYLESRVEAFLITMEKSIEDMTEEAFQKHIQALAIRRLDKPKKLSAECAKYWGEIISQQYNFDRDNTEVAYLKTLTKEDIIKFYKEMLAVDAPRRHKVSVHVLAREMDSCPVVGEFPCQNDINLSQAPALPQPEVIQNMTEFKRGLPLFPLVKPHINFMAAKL
Description: activators of recombinant IDE enzyme, dose response, counter-screen for IDE activator project, biochemical, fluorescence polarization (AID 588681).

Test [2] concerns the target T1, Insulin-degrading enzyme. Description: activators of endogenous IDE in HEK cells, dose response, cell-based, fluorescence polarization (AID 588439). The class given is functional.
The test system of test [3] is HEK293. Nature of the test: HEK cell cytotoxicity by LDH release, dose response, cytotoxicity control for IDE activator project, fluorescence, HEK cells (AID 588440).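 Also: cytotoxicity by LDH release measuring loss of membrane integrity.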 The note with it: Homo sapiens. The class given is functional, cell-based.
In test [4] the test system is HEK293. Description: optical interference in Abeta FP readout, dose response, artefact control for IDE activator project, biochemical, fluorescence polarization (AID 588442). The class given is functional, cell-based. As to conditions: Homo sapiens.
The target in test [5] is T2, Sentrin-specific protease 8 (Homo sapiens, UniProt Q96LD8).
T2 sequence (Q96LD8 whole entry): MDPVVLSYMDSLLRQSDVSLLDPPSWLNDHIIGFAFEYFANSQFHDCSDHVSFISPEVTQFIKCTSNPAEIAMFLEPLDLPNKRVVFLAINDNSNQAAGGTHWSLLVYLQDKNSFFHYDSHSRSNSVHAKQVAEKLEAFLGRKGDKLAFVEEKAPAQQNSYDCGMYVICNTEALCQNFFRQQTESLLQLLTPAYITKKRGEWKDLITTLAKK
Description: SENP8 protease inhibitors, SAR follow-up, biochemical, luminescence (AID 504501). The class given is functional.

The target in the next test is T3, Caspase-3 (Homo sapiens, UniProt P42574).
T3 sequence (P42574 whole entry): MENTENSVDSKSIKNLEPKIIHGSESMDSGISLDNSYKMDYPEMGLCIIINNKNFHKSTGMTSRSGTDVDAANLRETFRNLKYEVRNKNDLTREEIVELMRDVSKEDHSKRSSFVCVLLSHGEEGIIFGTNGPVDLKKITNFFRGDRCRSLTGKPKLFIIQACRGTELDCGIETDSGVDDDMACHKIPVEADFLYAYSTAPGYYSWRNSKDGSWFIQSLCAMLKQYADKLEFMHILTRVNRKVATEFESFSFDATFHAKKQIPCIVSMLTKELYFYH
Nature of the test: SAR Analysis of small molecule inhibitors of Sentrin-specific proteases (SENPs) using a Caspase-3 Selectivity assay. [Related pubchem assays (depositor defined):AID2540, AID2599, AID434973, AID489001]. It is filed as functional.

For test [6], the target named is T4, Sentrin-specific protease 6 (Homo sapiens, UniProt Q9GZR1).
T4 sequence (Q9GZR1 whole entry): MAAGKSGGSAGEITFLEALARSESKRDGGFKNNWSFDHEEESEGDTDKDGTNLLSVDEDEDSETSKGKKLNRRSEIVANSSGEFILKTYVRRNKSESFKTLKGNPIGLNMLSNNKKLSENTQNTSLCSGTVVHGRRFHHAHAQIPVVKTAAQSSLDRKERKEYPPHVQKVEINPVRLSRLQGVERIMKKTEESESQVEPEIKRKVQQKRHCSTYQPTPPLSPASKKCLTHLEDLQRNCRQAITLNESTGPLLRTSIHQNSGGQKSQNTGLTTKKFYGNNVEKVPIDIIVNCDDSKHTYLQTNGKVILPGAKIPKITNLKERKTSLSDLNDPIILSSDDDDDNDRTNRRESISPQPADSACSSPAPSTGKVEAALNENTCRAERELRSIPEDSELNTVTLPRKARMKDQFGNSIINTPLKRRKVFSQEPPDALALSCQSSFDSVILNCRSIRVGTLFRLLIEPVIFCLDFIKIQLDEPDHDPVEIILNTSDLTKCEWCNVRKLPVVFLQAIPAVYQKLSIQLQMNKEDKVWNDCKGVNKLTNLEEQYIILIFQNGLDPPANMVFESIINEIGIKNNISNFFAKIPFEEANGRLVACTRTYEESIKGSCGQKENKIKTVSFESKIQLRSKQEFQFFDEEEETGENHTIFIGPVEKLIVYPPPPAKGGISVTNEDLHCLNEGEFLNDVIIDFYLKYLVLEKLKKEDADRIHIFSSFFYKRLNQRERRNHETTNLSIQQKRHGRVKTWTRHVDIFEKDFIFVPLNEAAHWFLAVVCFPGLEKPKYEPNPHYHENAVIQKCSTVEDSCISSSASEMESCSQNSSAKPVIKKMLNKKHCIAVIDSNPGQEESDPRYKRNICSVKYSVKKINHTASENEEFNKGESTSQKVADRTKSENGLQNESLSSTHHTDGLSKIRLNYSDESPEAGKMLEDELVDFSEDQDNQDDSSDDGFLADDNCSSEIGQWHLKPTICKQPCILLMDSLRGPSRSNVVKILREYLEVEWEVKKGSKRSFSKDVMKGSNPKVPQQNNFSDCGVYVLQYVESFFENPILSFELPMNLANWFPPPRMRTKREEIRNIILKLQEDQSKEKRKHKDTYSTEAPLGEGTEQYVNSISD
Nature of the test: SAR Analysis of small molecule inhibitors of Sentrin-specific protease 6 (SENP6) using a Luminescent assay. [Related pubchem assays (depositor defined):AID2582, AID2599]. The class given is functional.

The target of test [7] is T5, Sentrin-specific protease 7 (Homo sapiens, UniProt Q9BQF6).
T5 sequence (Q9BQF6 whole entry): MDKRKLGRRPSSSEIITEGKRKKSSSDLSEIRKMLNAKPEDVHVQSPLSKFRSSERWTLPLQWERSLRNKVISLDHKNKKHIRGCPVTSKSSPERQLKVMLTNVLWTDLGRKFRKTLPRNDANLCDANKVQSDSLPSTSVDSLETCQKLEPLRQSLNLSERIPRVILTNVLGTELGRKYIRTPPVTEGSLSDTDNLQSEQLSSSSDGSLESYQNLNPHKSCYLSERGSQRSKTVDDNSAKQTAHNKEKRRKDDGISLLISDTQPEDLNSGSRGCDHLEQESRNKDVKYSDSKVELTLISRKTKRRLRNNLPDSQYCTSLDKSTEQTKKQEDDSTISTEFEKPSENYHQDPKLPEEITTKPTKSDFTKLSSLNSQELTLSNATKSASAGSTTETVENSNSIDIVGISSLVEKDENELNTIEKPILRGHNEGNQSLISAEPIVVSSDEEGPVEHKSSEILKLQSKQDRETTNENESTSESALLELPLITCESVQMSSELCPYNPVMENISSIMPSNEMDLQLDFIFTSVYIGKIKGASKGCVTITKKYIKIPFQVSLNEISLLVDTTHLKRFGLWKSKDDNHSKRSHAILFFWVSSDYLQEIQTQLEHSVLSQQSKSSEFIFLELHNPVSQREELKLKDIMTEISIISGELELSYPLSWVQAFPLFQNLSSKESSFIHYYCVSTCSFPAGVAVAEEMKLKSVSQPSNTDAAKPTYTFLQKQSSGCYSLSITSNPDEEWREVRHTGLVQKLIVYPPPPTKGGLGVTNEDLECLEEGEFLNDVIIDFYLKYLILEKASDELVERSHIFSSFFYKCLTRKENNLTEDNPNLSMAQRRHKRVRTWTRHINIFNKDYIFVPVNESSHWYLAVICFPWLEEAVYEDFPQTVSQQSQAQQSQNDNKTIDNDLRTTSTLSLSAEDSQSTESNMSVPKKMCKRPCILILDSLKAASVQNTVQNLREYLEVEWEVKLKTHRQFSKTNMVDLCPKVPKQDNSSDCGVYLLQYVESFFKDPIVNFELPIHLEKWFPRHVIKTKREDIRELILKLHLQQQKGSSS
Nature of the test: SENP7 protease inhibitors, SAR follow-up, biochemical, luminescence (AID 504497). It is filed as functional.

The target in test [8] is T6, High affinity choline transporter 1 (Homo sapiens, UniProt Q9GZV3).
T6 sequence (Q9GZV3 whole entry): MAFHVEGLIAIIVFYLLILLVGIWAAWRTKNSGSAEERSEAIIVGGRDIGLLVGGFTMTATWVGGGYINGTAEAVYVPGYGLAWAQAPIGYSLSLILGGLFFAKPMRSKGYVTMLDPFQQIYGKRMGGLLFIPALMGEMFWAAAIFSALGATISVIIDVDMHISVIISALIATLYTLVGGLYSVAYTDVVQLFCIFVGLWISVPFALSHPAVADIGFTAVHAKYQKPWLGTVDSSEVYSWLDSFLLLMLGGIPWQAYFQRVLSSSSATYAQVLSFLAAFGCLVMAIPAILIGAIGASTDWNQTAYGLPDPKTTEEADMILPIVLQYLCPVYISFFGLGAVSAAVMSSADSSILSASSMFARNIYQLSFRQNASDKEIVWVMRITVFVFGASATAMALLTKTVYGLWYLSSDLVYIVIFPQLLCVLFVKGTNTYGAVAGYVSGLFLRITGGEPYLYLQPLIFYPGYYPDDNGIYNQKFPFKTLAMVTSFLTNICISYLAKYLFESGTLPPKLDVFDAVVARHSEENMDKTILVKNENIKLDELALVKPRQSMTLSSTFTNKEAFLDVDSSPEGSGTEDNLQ
Nature of the test: CHT inhibitors, dose response, cell-based, 5-point CRC, membrane potential dye (AID 504840). The class given is functional.

The target in test [9] is T6, High affinity choline transporter 1. Description: CHT inhibitors, dose response, cell-based, 10-point CRC, membrane potential dye (AID 588401).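 Also: membrane potential dye fluorescence of choline-evoked depolarization via CHT.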 It is filed as functional.
In test [10] the target is Melanin-concentrating hormone receptor 1 (Homo sapiens, UniProt Q99705). Description: Late-stage fluorescence-based counterscreen for antagonists of the G-protein coupled receptor 7 (GPR7): cell-based dose response assay to identify antagonists of the melanin-concentrating hormone receptor 1 (MCHR1) Set 6. The class given is functional.
Melanin-concentrating hormone receptor 1, sequence (Q99705 whole entry): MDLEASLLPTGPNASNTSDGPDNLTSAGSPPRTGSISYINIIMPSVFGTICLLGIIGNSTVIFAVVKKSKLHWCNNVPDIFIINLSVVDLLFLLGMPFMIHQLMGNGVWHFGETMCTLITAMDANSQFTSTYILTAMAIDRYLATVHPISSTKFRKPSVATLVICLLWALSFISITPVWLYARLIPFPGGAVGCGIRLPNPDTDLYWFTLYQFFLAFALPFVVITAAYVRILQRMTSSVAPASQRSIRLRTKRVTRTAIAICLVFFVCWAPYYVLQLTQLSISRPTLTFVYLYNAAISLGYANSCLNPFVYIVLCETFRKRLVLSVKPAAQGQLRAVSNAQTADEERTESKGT
Test [11] concerns the target T7, Neuropeptides B/W receptor type 1 (Homo sapiens, UniProt P48145).
T7 sequence (P48145 whole entry): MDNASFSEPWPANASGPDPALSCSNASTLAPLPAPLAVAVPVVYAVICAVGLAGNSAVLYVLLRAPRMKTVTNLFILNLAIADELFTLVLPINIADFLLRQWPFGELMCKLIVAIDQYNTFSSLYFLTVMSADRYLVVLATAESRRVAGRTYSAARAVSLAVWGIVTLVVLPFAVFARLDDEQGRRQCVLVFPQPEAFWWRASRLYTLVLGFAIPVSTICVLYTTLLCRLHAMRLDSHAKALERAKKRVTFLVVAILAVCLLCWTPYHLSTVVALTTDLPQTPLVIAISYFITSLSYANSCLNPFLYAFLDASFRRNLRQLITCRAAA
Nature of the test: GPR7 antagonist potency, late-stage follow-up, cell-based, fluorescence, dose response, set 6 (AID 588583). The class given is functional.

The source made the active and inactive calls.

Here are results for 7 molecules from ChEMBL document CHEMBL1201862, “PubChem BioAssay data set” (2004).

For `CNC[C@@H]1Oc2ccc(NS(=O)(=O)c3ccc(OC)cc3)cc2CC(=O)N([C@H](C)CO)C[C@@H]1C`, the EC50 at Insulin-degrading enzyme [1] was > 54.7 µM (inactive); on Insulin-degrading enzyme [2], > 54.7 µM (inactive); with HEK293 [4] it was > 55.9 µM (inactive). For the same molecule, the IC50 in the test on HEK293 [3] was > 89.2 µM (inactive).
Regarding `N#Cc1c(NC(=O)c2ccc(Cn3cc(Br)cn3)o2)sc2c1CCCCCC2`, the IC50 (in test [5]; on Caspase-3; in [6]; in test [7]) was > 99 µM (inactive) each time.
With `O=C(C[n+]1cccc(Br)c1)c1ccccc1`, the results for the IC50 in [8] and in [9] were 3.23 µM (active) and 2.84 µM (active), respectively.
The like results for `CC(=O)OC1CC2(C)C(=O)CCC2C2CCc3cc(O)ccc3C12` (stereo not given) were, in that order, 9.28 µM (active) and 3.36 µM (active).
`CCCCc1ccc2nc(NC(=O)c3csc4ccccc34)sc2c1`: the IC50 (in [5]; at Caspase-3; in test [6]; in test [7]) was > 99 µM (inactive) throughout.
Regarding `Cc1nnc(C(C#N)c2c(Cl)cnn(Cc3cccc4ccccc34)c2=O)o1` (stereo not given), the IC50 in test [10] and in [11] was 0.435 µM (active) each time.
Regarding `N#CC(c1cccc(C(F)(F)F)c1)c1c(Cl)cnn(Cc2cccc3ccccc23)c1=O` (stereo not given), the IC50 in test [10] and in [11] was 1.53 µM (active) throughout.
